Like-named read-outs stand apart in the source and are kept apart here.

Holding throughout (type): in vivo
For series [1], the system named is Cabbage Looper (Trichoplusia ni, TRIPNI). Put plainly: Bioassays on Cabbage Looper (CL), 128-well diet tray assay. Conditions: Trichoplusia ni. In a few lines: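 Each of eight wells receives artificial diet treated at 50 μg/cm^2 with the test molecule, then one to five second-instar larvae. Incubation runs five to seven days at 25° C with a 14:10 light-dark cycle under vented covers. Mortality is scored per well as a percentage and averaged.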

Series [2] deals with Yellow Fever Mosquito (Aedes aegypti, AEDSAE). Conditions: for YFM rating: Yellow Fever Mosquito, Table ABC / ABC-DP rating; for YFM: Table ABC: Biological Results, species YFM. The method, then:
Certain molecules disclosed in this document were tested against YFM using procedures described in the following paragraph. In the reporting of the results, the “GPA & YFM Rating Table” was used (See Table Section).
Master plates containing 400 μg of a molecule dissolved in 100 μL of dimethyl sulfoxide (DMSO) (equivalent to a 4000 ppm solution) are used. A master plate of assembled molecules contains 15 μL per well. To this plate, 135 μL of a 90:10 water/acetone mixture is added to each well. A robot (Biomek® NXP Laboratory Automation Workstation) is programmed to dispense 15 μL aspirations from the master plate into an empty 96-well shallow plate (“daughter” plate). There are 6 reps (“daughter” plates) created per master. The created “daughter” plates are then immediately infested with YFM larvae.
The day before plates are to be treated, mosquito eggs are placed in Millipore water containing liver powder to begin hatching (4 g into 400 mL). After the “daughter” plates are created using the robot, they are infested with 220 μL of the liver powder/larval mosquito mixture (about 1 day-old larvae). After plates are infested with mosquito larvae, a non-evaporative lid is used to cover the plate to reduce drying. Plates are held at room temperature for 3 days prior to grading. After 3 days, each well is observed and scored based on mortality. The results are indicated in the table entitled “Table ABC: Biological Results” (See Table Section).

For series [3], the system named is Beet Armyworm (Spodoptera exigua, LAPHEG). Kind of series: Bioassays on Beet Armyworm (BAW), 128-well diet tray assay. Conditions: Spodoptera exigua. In a few lines: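 Eight diet wells per compound were treated at 50 μg/cm^2 (acetone-water 90:10), dried, then infested with 1–5 second-instar larvae each. After five to seven days at 25 °C under 14:10 photoperiod, mortality was scored and averaged across wells.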

Where [4] appears, read: Cabbage Looper, Table ABC / ABC-DP rating, read-out: CL rating.
[5] abbreviates: Beet Armyworm, Table ABC / ABC-DP rating, read-out: BAW rating.
Where [6] appears, read: Table ABC: Biological Results, species CL, read-out: CL.
Setting [7] is: Table ABC: Biological Results, species BAW, read-out: BAW.
The mark [8] stands for this setting: Cabbage Looper, rating class, read-out: CL.
Setting [9] is: Beet Armyworm, rating class, read-out: BAW.

In the case of `O=C(CCC(F)(F)C(F)(F)F)Nc1c(F)ccc(NC(=O)c2cc(NC(=O)[C@H]3[C@H](c4ccc(F)c(C(F)(F)F)c4)C3(Cl)Cl)ccc2Cl)c1F` [F1844, 2-Chloro-5-((1R,3R)-2,2-dichloro-3-(4-fluoro-3-(trifluoromethyl)phenyl)cyclopropane-1-carboxamido)-N-(2,4-difluoro-3-(4,4,5,5,5-pentafluoropentanamido)phenyl)benzamide], the pest or weed control at 50 µg/cm2 in series [1] (setting [4]) and in series [3] (setting [5]) was 50 to 100% each time. The YFM rating result in series [2] is “A (80–100)”.
In the case of `CC(=O)Nc1c(F)ccc(N(C)C(=O)c2cc(NC(=O)[C@H]3[C@H](c4ccc(F)c(C(F)(F)F)c4)C3(Cl)Cl)ccc2Cl)c1F` [F1799, N-(3-Acetamido-2,4-difluorophenyl)-2-chloro-5-((1R,3R)-2,2-dichloro-3-(4-fluoro-3-(trifluoromethyl)phenyl)cyclopropane-1-carboxamido)-N-methylbenzamide], the pest or weed control at 50 µg/cm2 in series [1] (setting [4]) and in series [3] (setting [5]) was 50 to 100% each time. The YFM rating entry in series [2] was “A (80–100)”.
With `O=C(NCC(F)(F)F)c1cc(NC(=O)[C@H]2[C@H](c3cc(F)c(F)c(Br)c3)C2(Cl)Cl)ccc1Cl` (relative stereo) [F2003, trans-5-(3-(3-Bromo-4,5-difluorophenyl)-2,2-dichlorocyclopropane-1-carboxamido)-2-chloro-N-(2,2,2-trifluoroethyl)benzamide], the pest or weed control at 50 µg/cm2 in series [1] (setting [4]) and in series [3] (setting [5]) was 50 to 100% in each case. The YFM rating entry in series [2] was “A (80–100)”.
With `COCC(=O)Nc1c(F)ccc(NC(=O)c2cc(NC(=O)[C@H]3[C@H](c4ccc(Cl)c(Cl)c4)C3(Cl)Cl)ccc2Cl)c1F` [F1254, 2-Chloro-5-((1R,3R)-2,2-dichloro-3-(3,4-dichlorophenyl)cyclopropane-1-carboxamido)-N-(2,4-difluoro-3-(2-methoxyacetamido)phenyl)benzamide], the pest or weed control at 50 µg/cm2 in series [1] (setting [6]) and in series [3] (setting [7]) was 50 to 100% in each case. Also, the YFM entry in series [2] was “A (80–100)”.
For `CNc1c(F)ccc(N(C)C(=O)c2cc(NC(=O)[C@H]3[C@H](c4ccc(Cl)c(Cl)c4)C3(Cl)Cl)ccc2Cl)c1F` (relative stereo) [F1071, trans-2-Chloro-5-(2,2-dichloro-3-(3,4-dichlorophenyl)cyclopropane-1-carboxamido)-N-(2,4-difluoro-3-(methylamino)phenyl)-N-methylbenzamide], the pest or weed control at 50 µg/cm2 in series [1] (setting [6]) and in series [3] (setting [7]) was 50 to 100% throughout. In addition, the YFM result in series [2] is recorded as “A (80–100)”.
Take `Cc1cc(NCc2ccc([N+](=O)[O-])cc2)ccc1NC(=O)c1cc(NC(=O)[C@H]2[C@H](c3cc(Cl)cc(Cl)c3)C2(Cl)Cl)ccc1Cl` (relative stereo) [F1166, trans-2-Chloro-5-(2,2-dichloro-3-(3,5-dichlorophenyl)cyclopropane-1-carboxamido)-N-(2-methyl-4-((4-nitrobenzyl)amino)phenyl)benzamide]: the pest or weed control at 50 µg/cm2 in series [1] (setting [6]) and in series [3] (setting [7]) was 50 to 100% in each case. Also, in series [2], the YFM result is listed as “A (80–100)”.
On to `O=C(NCCNC(=O)C(F)(F)F)c1cc(NC(=O)[C@H]2[C@H](c3cc(Cl)cc(Cl)c3)C2(Cl)Cl)ccc1Cl` (relative stereo) [F2066, trans-2-Chloro-5-(2,2-dichloro-3-(3,5-dichlorophenyl)cyclopropane-1-carboxamido)-N-(2-(2,2,2-trifluoroacetamido)ethyl)benzamide], for which the pest or weed control at 50 µg/cm2 in series [1] (setting [4]) and in series [3] (setting [5]) was 50 to 100% in each case. In addition, in series [2], the YFM rating entry is listed as “A (80–100)”.
Take `CCNC(=O)c1cc(NC(=O)[C@H]2[C@H](c3ccc(F)c(C(F)(F)F)c3)C2(Cl)Cl)c(F)cc1Cl` [F2083, 2-Chloro-5-((1R,3R)-2,2-dichloro-3-(4-fluoro-3-(trifluoromethyl)phenyl)cyclopropane-1-carboxamido)-N-ethyl-4-fluorobenzamide]: in series [1] (setting [4]), the pest or weed control at 50 µg/cm2 lay in the range of 50 to 100%. Moreover, the YFM rating result in series [2] is listed as “B (More than 0 – Less than 80)”.
As for `CCNC(=O)c1cc(NC(=O)[C@H]2[C@H](c3ccc(F)c(Cl)c3)C2(Cl)Cl)cc(F)c1OC` (relative stereo) [F2057, trans-5-(2,2-Dichloro-3-(3-chloro-4-fluorophenyl)cyclopropane-1-carboxamido)-N-ethyl-3-fluoro-2-methoxybenzamide], in series [1] (setting [4]), the pest or weed control at 50 µg/cm2 was 50 to 100%. The YFM rating result in series [2] is on record as “A (80–100)”.
For `O=C(NNc1ccc(C(F)(F)F)cc1)c1cc(NC(=O)[C@H]2[C@H](c3cc(Cl)cc(Cl)c3)C2(Cl)Cl)ccc1Cl` (relative stereo) [F2571, trans-2,2-Dichloro-N-(4-chloro-3-(2-(4-(trifluoromethyl)phenyl)hydrazine-1-carbonyl)phenyl)-3-(3,5-dichlorophenyl)cyclopropane-1-carboxamide], the YFM rating result in series [2] is on record as “A (80–100)”. Further, the “YFM % Control (or Mortality) rating” value in series [2] (about 1 day-old larvae, 4000 ppm master solution diluted with 90:10 water/acetone, 15 μL per well plus 220 μL larval mixture, 3 days, mortality) is listed as “A (80–100)”.
Turning to `O=C(Nc1ccc(F)c(NC(=O)C(F)F)c1F)c1cc(NC(=O)[C@H]2[C@H](c3cc(Cl)c(Cl)c(Cl)c3)C2(Cl)Cl)ccc1F` [F1527, 5-((1R,3R)-2,2-Dichloro-3-(3,4,5-trichlorophenyl)cyclopropane-1-carboxamido)-N-(3-(2,2-difluoroacetamido)-2,4-difluorophenyl)-2-fluorobenzamide], the pest or weed control at 50 µg/cm2 in series [1] (setting [8]) and in series [3] (setting [9]) was 50 to 100% throughout.
Consider `C=C(F)C(=O)Nc1c(F)ccc(NC(=O)c2cc(NC(=O)[C@H]3[C@H](c4cc(Cl)c(Cl)c(Cl)c4)C3(Cl)Cl)ccc2Cl)c1F` [F1872, 2-Chloro-5-((1R,3R)-2,2-dichloro-3-(3,4,5-trichlorophenyl)cyclopropane-1-carboxamido)-N-(2,4-difluoro-3-(2-fluoroacrylamido)phenyl)benzamide], for which the pest or weed control at 50 µg/cm2 in series [1] (setting [4]) and in series [3] (setting [5]) was 50 to 100% each time.
Consider `O=C(Nc1cc(NC(=O)C(F)(F)F)c(F)cc1F)c1cc(NC(=O)[C@H]2[C@H](c3cc(Cl)c(Cl)c(Cl)c3)C2(Cl)Cl)cc(F)c1F` [F1579, 5-((1R,3R)-2,2-Dichloro-3-(3,4,5-trichlorophenyl)cyclopropane-1-carboxamido)-N-(2,4-difluoro-5-(2,2,2-trifluoroacetamido)phenyl)-2,3-difluorobenzamide], for which the pest or weed control at 50 µg/cm2 in series [1] (setting [8]) and in series [3] (setting [9]) was 50 to 100% in each case.
In the case of `O=C(Nc1c(F)ccc(NC(=O)C(F)F)c1F)c1cc(NC(=O)[C@H]2[C@H](c3cc(Cl)c(Cl)c(Cl)c3)C2(Cl)Cl)cc(F)c1F` [F1589, 5-((1R,3R)-2,2-Dichloro-3-(3,4,5-trichlorophenyl)cyclopropane-1-carboxamido)-N-(3-(2,2-difluoroacetamido)-2,6-difluorophenyl)-2,3-difluorobenzamide], the pest or weed control at 50 µg/cm2 in series [1] (setting [8]) and in series [3] (setting [9]) was 50 to 100% each time.
Consider `O=C(Nc1c(F)ccc(NC(=O)C(F)(F)C(F)(F)C(F)(F)F)c1F)c1cc(NC(=O)[C@H]2[C@H](c3cc(Cl)c(Cl)c(Cl)c3)C2(Cl)Cl)cc(F)c1F` [F1779, 5-((1R,3R)-2,2-Dichloro-3-(3,4,5-trichlorophenyl)cyclopropane-1-carboxamido)-N-(2,6-difluoro-3-(2,2,3,3,4,4,4-heptafluorobutanamido)phenyl)-2,3-difluorobenzamide], for which the pest or weed control at 50 µg/cm2 in series [1] (setting [4]) and in series [3] (setting [5]) was 50 to 100% throughout.
Regarding `CCNC(=O)c1cc(NC(=O)[C@H]2[C@H](c3ccc(F)c(Cl)c3)C2(Cl)Cl)cc(C(F)(F)F)c1Cl` (relative stereo) [F2053, trans-2-Chloro-5-(2,2-dichloro-3-(3-chloro-4-fluorophenyl)cyclopropane-1-carboxamido)-N-ethyl-3-(trifluoromethyl)benzamide], the pest or weed control at 50 µg/cm2 in series [1] (setting [4]) and in series [3] (setting [5]) was 50 to 100% in each case.
With `Cc1cc(NC(=O)[C@H]2[C@H](c3cc(Cl)c(Cl)c(Cl)c3)C2(Cl)Cl)cc(C(=O)Nc2cc(NC(=O)C(F)F)c(F)cc2F)c1Cl` [F1498, 2-Chloro-5-((1R,3R)-2,2-dichloro-3-(3,4,5-trichlorophenyl)cyclopropane-1-carboxamido)-N-(5-(2,2-difluoroacetamido)-2,4-difluorophenyl)-3-methylbenzamide], the pest or weed control at 50 µg/cm2 in series [1] (setting [8]) and in series [3] (setting [9]) was 50 to 100% in each case.

The values above are taken from patent US20250228239A1, “MOLECULES HAVING PESTICIDAL UTILITY, AND INTERMEDIATES, COMPOSITIONS, AND PROCESSES, RELATED THERETO” (priority 2024, published 2025).
